According to patent publication US8338471B2, “(2,5-dioxoimidazolidin-i-yl)-n-hydroxy-acetamides as metalloproteinase inhibitors” (Medivir AB, priority 2005, dated 2012):

Assays:
Assay type in all cases: biochemical
recombinant human TACE = target: T1, recombinant human TACE (Homo sapiens, UniProt P78536); assay: TACE enzyme assay (FRET substrate), selectivity versus MMP-12; settings: fold difference in Ki for TACE compared to MMP-12
T1 construct: purchased R&D Systems
Procedure: The activity was measured by a continuous detection of increased fluorescence intensity during 12 min. The substrate consisted of a peptide with a fluorescent donor 7-methoxycoumarin (Mca) and a quenching acceptor 2,4-dinitrophenyl group (Dpa), typically Mca-P-L-A-Q-A-V-Dpa-R-S-S-S-R-NH2 (R&D Systems, ES003). The cleavage site by TACE is the peptide bond between Ala and Val. The compounds were tested at a range of concentrations while the enzyme and substrate concentrations were fixed. A typical TACE assay employs recombinant human TACE (supplied by R&D Systems) in an assay buffer (25 mM Tris-HCl, pH=9.0, 2.5 μM ZnCl2, 0.005% Brij 35). The enzyme concentration (TACE) used was 100 ng/ml, the substrate was prepared at a 100 μM stock solution in DMSO and a 96-well polypropylene plate was used for the reaction mixtures. To each well of the plate was added assay buffer 90.0 μl, enzyme (TACE) 0.09 μl and inhibitor 1 μl. The reactions were started by addition of substrate 10 μl/well, giving a substrate concentration of 10 μM and a total volume of 100 μl/well. The total concentration of DMSO was not above 1%. The assay was performed at ambient temperature. Product fluorescence ([…]) was monitored with a Thermo Labsystems Fluoroskan Ascent plate reader. The Ki was determined by Prism Software.
(§1) The selectivity for MMP-12 over MMP-3 and TACE was evaluated for a representative selection of the compounds of the invention by comparing the Ki figures obtained when tested in the corresponding enzyme assays, such as those described above. The selectivity is presented as the fold difference in Ki for TACE and MMP-3 compared to MMP-12 and is calculated as the ratio Ki(TACE)/KiMMP-12 and Ki(MMP-3)/KiMMP-12 respectively.

recombinant human MMP-3 = target: T2, recombinant human MMP-3 (Homo sapiens, UniProt P08254); assay: MMP-3 enzyme assay (FRET substrate), selectivity versus MMP-12; settings: fold difference in Ki for MMP-3 compared to MMP-12
T2 construct: purchased R&D Systems
Procedure: The activity was measured by a continuous detection of increased fluorescence intensity during 12 min. The substrate consisted of a peptide with a fluorescent donor 7-methoxycoumarin (Mca) and a quenching acceptor 2,4-dinitrophenyl group (Dpa), typically Mca-Arg-Pro-Lys-Pro-Val-Glu-Nval-Trp-Arg-Lys(Dnp)-NH2 (R&D Systems, ES002). The cleavage site by MMP-3 is the peptide bond between Glu and Nval. The compounds were tested at a range of concentrations, the enzyme concentration (MMP-3) was fixed at 400 ng/ml and the substrate concentrations was 10 μM. The MMP-3 assay used employs recombinant human MMP-3 (supplied by R&D Systems) in an assay buffer of 50 mM Tris-HCl, 200 mM calcium acetate at pH=7.5. The MMP-3 enzyme was preactivated by dilution to 0.119 mg/ml into 1 mM APMA (p-aminophenylmercuric acetate) followed by incubation at 37° C. for 24 hours. The substrate was prepared at a 100 μM stock solution in DMSO and a 96-well polypropylene plate was used for the reaction mixtures. To each well of the plate was added assay buffer 90.0 μl, enzyme (MMP-3) 0.3 μl and inhibitor 1 μl. The reactions were started by addition of substrate, 10 μl/well, to a total volume of 100 μl/well. The total concentration of DMSO was not above 1%. The assay was performed at ambient temperature. Product fluorescence ([…]) was monitored with a Thermo Labsystems Fluoroskan Ascent plate reader. The Ki was determined by Prism Software.
as §1

recombinant human MMP-12 = target: T3, recombinant human MMP-12 (Homo sapiens, UniProt P39900); assay: MMP-12 enzyme assay (FRET substrate)
T3 construct: purchased R&D Systems; host or cells: mouse myeloma cell line NS-40 (so in the source)
Procedure: A typical MMP-12 enzyme assay employs recombinant human MMP-12 catalytic domain expressed and purified as described by Parkar A. A. et al, (2000), Protein Expression and Purification, 20:152. The purified enzyme can be used to monitor inhibitors of activity as follows: MMP-12 (50 ng/ml final concentration) is incubated for 60 minutes at room temperature with the synthetic substrate Mac-Pro-Cha-Gly-Nva-His-Ala-Dpa-NH2 in assay buffer (0.1M “Tris-HCl” (trade mark) buffer, pH 7.3 containing O.1M NaCl, 20 mM CaCl2, 0.020 mM ZnCl and 0.05% (w/v) “Brij 35” (trade mark) detergent) in the presence (5 concentrations) or absence of inhibitors. Activity is determined by measuring the fluorescence at λex 320 nm and λem 405 nm. Percent inhibition is calculated as follows: % Inhibition is equal to the (Fluorescenceplus inhibitor−Fluorescencebackground); divided by the (Fluorescenceminus inhibitor−Fluorescencebackground);
A favoured assay employs full length recombinant human MMP-12, amino acid residues 1 to 470 (Shapiro et al 1993, J Biol Chem 268:23824-23829) expressed in mouse myeloma cell line NS-40. The purified rhMMP-12 typically has the N terminal sequence L17PLNSSTSLE and an SDS-PAGE apparent molecular mass of approx. 56 kDa. Such proteins are available from R&D Systems, USA as a lyophilised 0.2 um filtered solution of 25 mM MES, 0.15M NaCl, 10 mMCaCl2, 0.15% Brij 35, pH 5.5. Auto-activation of the rhMMP-12 can be achieved by dilution to 0.05 mg/ml into TCNB buffer (50 mMTris, 10 mM CaCl2, 0.15M NaCl, 0.05% Brij 35, pH 7) and incubation at 37 degrees for 30 hours. A preferred buffer for MMP work is 50 mM Tris.HCl, pH 7.5, 200 mM Ca acetate.
Suitable FRET substrates include (7-methoxycoumarin-4-yl)acetyl-Pro-Leu-Gly-Leu-(3-(2,4-dinitrophenoyl)-L-2,3-diaminopropionyl)-Ala-Arg-NH2, commercially available from R&D Systems, USA. Typical specific activities are >500 picomol/min/ug, with rhMMP-12 measured with 10 uM of this substrate, 20 ng activated enzyme in 100 ul TCNB buffer at room temperature.
An alternative general MMP substrate is Dnp-PLGLWAD-R-NH2.
Category A indicates ≦50 nM inhibition, category B indicates 51-200 nM inhibition and category C indicates >200 nM: […]

T1 sequence (P78536 215-824): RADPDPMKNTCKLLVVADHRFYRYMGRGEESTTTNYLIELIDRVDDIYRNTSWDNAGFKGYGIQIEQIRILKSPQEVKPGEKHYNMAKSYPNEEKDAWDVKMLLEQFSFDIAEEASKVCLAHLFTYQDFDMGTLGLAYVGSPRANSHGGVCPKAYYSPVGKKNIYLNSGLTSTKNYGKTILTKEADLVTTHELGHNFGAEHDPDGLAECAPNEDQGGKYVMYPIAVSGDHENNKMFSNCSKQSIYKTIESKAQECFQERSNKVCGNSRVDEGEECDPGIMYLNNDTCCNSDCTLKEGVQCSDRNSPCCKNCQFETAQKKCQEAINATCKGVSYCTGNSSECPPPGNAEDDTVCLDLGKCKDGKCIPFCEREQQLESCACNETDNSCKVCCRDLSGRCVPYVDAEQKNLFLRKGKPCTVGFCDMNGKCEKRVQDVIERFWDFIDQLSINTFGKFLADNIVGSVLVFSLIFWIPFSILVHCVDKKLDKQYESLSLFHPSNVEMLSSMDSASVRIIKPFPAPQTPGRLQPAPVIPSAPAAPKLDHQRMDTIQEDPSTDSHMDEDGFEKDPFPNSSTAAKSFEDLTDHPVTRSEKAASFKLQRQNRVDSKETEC
T2 sequence (P08254 100-477): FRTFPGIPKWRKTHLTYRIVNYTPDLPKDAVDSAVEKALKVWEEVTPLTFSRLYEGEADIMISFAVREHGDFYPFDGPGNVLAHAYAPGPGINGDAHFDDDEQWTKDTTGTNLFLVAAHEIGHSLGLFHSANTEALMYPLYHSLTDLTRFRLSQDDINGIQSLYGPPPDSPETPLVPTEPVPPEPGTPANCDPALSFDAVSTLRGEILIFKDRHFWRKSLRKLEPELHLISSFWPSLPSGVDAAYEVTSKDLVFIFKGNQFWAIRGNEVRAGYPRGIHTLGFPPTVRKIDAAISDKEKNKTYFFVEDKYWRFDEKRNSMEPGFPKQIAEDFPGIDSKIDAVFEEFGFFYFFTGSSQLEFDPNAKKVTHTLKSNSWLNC
T3 sequence (P39900 106-470): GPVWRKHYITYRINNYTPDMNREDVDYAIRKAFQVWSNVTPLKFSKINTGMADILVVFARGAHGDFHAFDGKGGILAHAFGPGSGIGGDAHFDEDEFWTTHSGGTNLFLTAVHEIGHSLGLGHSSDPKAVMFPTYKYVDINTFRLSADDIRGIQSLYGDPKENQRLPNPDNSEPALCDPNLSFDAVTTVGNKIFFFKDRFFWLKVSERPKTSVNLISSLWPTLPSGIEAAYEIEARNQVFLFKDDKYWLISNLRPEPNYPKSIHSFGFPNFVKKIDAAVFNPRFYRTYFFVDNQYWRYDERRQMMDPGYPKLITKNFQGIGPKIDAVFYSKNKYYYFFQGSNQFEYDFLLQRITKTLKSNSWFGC

| SMILES | Ki(TACE)/Ki(MMP-12) (recombinant human TACE) | Ki(MMP-3)/Ki(MMP-12) (recombinant human MMP-3) | Ki (recombinant human MMP-12) |
| --- | --- | --- | --- |
| CC(C)[C@H](C(=O)NO)N1C(=O)N[C@@H](CCc2ccc(-c3ccccc3)cc2)C1=O (stereo in doubt) [Example 5, 2-[4-(2-Biphenyl-4-yl-ethyl)-2,5-dioxo-imidazolidin-1-yl]-N-hydroxy-3-methyl-butyramide] | >4500 | 71 | – |
| CC(C)[C@H](C(=O)NO)N1C(=O)N[C@@H](COCc2ccc(Br)cc2)C1=O (stereo in doubt) [Example 13i, 2-[4-(4-Bromobenzyloxymethyl)-2,5-dioxo-imidazolidin-1-yl]-N-hydroxy-3-methyl-butyramide] | >190 | >190 | – |
| CC(C)[C@H](C(=O)NO)N1C(=O)N[C@@H](CCc2ccc(Oc3ccccc3)cc2)C1=O (stereo in doubt) [Example 26, 2-{2,5-Dioxo-4-[2-(4-phenoxyphenyl)-ethyl]-imidazolidin-1-yl}-N-hydroxy-3-methyl-butyramide] | – | – | ≤ 50 nM |
| CC(C)[C@H](C(=O)NO)N1C(=O)N[C@@H](CCc2ccccc2)C1=O [Example 1] | 380 | 140 | – |
| CC(C)[C@H](C(=O)NO)N1C(=O)N[C@H](CCc2ccccc2)C1=O [Example 7, 2-(2,5-Dioxo-4-phenethyl-imidazolidin-1-yl)-N-hydroxy-3-methyl-butyramide] | >80 | 53 | 51 to 200 nM |
| O=C(NO)[C@@H](Cc1ccccc1)N1C(=O)N[C@@H](CCc2ccccc2)C1=O [Example 10, 2-(2,5-Dioxo-4-phenethyl-imidazolidin-1-yl)-N-hydroxy-3-phenhyl-propionamide] | >150 | 34 | ≤ 50 nM |
| CC(C)(C)[C@H](C(=O)NO)N1C(=O)N[C@@H](CCc2ccccc2)C1=O [Example 12, 2-(2,5-Dioxo-4-phenethyl-imidazolidin-1-yl)-N-hydroxy-3,3-dimethyl-butyramide] | 245 | 122 | – |
| CC(C)[C@H](C(=O)NO)N1C(=O)N[C@@H](COCc2ccc(C(F)(F)F)cc2)C1=O [Example 14, 2-[2,5-Dioxo-4-(4-trifluoromethyl-bezyloxymethyl)-imidazolidin-1-yl]-N-hydroxy-3-methyl-butyramide] | >500 | >500 | ≤ 50 nM |
| CC(C)[C@H](C(=O)NO)N1C(=O)N[C@@H](COCc2cccc(F)c2)C1=O [Example 15, 2-[4-(3-Fluorobenzyloxymethyl)-2,5-dioxo-imidazolidin-1-yl]-N-hydroxy-3-methyl-butyramide] | >700 | 120 | 51 to 200 nM |
| CC(C)[C@H](C(=O)NO)N1C(=O)N[C@@H](CCCCNC(=O)c2ccccc2)C1=O [Example 25h] | – | – | > 200 nM |
| Cc1ccccc1CCC1NC(=O)N(C(C(=O)NO)C(C)C)C1=O (centres unmarked) [Example 28, 2-[2,5-Dioxo-4-(2-o-tolylethyl)-imidazolidin-1-yl]-N-hydroxy-3-methyl-butyramide] | – | – | ≤ 50 nM |
| Cc1cccc(CCC2NC(=O)N(C(C(=O)NO)C(C)C)C2=O)c1 (centres unmarked) [Example 29, 2-[2,5-Dioxo-4-(2-m-tolylethyl)-imidazolidin-1-yl]-N-hydroxy-3-methyl-butyramide] | – | – | ≤ 50 nM |
| Cc1ccc(CCC2NC(=O)N(C(C(=O)NO)C(C)C)C2=O)cc1 (centres unmarked) [Example 30, 2-[2,5-Dioxo-4-(2-p-tolylethyl)-imidazolidin-1-yl]-N-hydroxy-3-methyl-butyramide] | 2200 | 75 | ≤ 50 nM |
| COc1ccccc1CCC1NC(=O)N(C(C(=O)NO)C(C)C)C1=O (centres unmarked) [Example 31, N-Hydroxy-2-{4-[2-(2-methoxyphenyl)-ethyl]-2,5-dioxo-imidazolidin-1-yl}-3-methyl-butyramide] | – | – | ≤ 50 nM |
| COc1cccc(CCC2NC(=O)N(C(C(=O)NO)C(C)C)C2=O)c1 (centres unmarked) [Example 32, N-Hydroxy-2-{4-[2-(3-methoxyphenyl)-ethyl]-2,5-dioxoimidazolidin-1-yl}-3-methylbutyramide] | 140 | >200 | – |
| COc1ccc(CC[C@@H]2NC(=O)N([C@@H](C(=O)NO)C(C)C)C2=O)cc1 [Example 33, N-Hydroxy-2-{4-[2-(4-methoxyphenyl)-ethyl]-2,5-dioxoimidazolidin-1-yl}-3-methylbutyramide] | – | – | ≤ 50 nM |
| CCc1ccc(CC[C@@H]2NC(=O)N([C@@H](C(=O)NO)C(C)C)C2=O)cc1 [Example 34, 2-{4-[2-(4-Ethylphenyl)-ethyl]-2,5-dioxoimidazolidin-1-yl}-N-hydroxy-3-methyl-butyramide] | – | – | ≤ 50 nM |
| CC(C)[C@H](C(=O)NO)N1C(=O)N[C@@H](CCc2ccccc2F)C1=O [Example 36, 2-{4-[2-(2-Fluorophenyl)-ethyl]-2,5-dioxoimidazolidin-1-yl}-N-hydroxy-3-methylbutyramide] | 280 | 240 | ≤ 50 nM |
| CC(C)[C@H](C(=O)NO)N1C(=O)N[C@@H](CCc2cccc(F)c2)C1=O [Example 37, 2-{4-[2-(3-Fluoro-phenyl)-ethyl]-2,5-dioxoimidazolidin-1-yl}-N-hydroxy-3-methylbutyramide] | – | – | ≤ 50 nM |
| CC(C)[C@H](C(=O)NO)N1C(=O)N[C@@H](CCc2ccc(Cc3ccccc3)cc2)C1=O [Example 39, 2-{4-[2-(4-Benzylphenyl)-ethyl]-2,5-dioxoimidazolidin-1-yl}-N-hydroxy-3-methylbutyramide] | – | – | ≤ 50 nM |
| CC(C)[C@H](C(=O)NO)N1C(=O)N[C@@H](CCc2ccc(C(=O)Cc3ccccc3)cc2)C1=O [Example 40, 2-{2,5-Dioxo-4-[2-(4-phenylacetyl-phenyl)-ethyl]-imidazolidin-1-yl}-N-hydroxy-3-methylbutyramide] | – | – | ≤ 50 nM |
